Measurements published in patent US10815275B2, “Antimicrobial peptoids with improved selectivity and use thereof” (priority 2018, dated 2020).
In brackets after ≈: the same amount, converted by molar mass. Like-named read-outs stand apart in the source and are kept apart here. Non-standard residues stand in square brackets, D forms with d. Residues, ends and D or L forms follow the SMILES beside them. Nspe = C[C@H](NCC(=O)O)c1ccccc1; Nphe = O=C(O)CNCc1ccccc1; Nlys = NCCCCNCC(=O)O

Legend:
[1] = tested on: S. aureus strain KCTC1621; assay type: cell-based; conditions: for MBC S. aureus: KCTC1621; for MIC S. aureus: KCTC1621, 18 h
Experimental: (§1) In order to measure antimicrobial activity of the peptoids, Gram-positive S. aureus strain KCTC1621, or Gram-negative E. coli strain ATCC25922 was treated with the peptoids prepared in Preparation Example 1, and minimum inhibitory concentrations were measured. Peptoid NOS. 1 and 2 are already known peptoids and were used for the purpose of making a comparison with novel peptoids in terms of antimicrobial activity.
(§2) Specifically, S. aureus strain KCTC1621 or E. coli strain ATCC25922 was inoculated into Mueller Hinton Broth (MHB2) liquid medium on which cations were adjusted, cultured at a temperature of 37° C. for 18 hours, and then subcultured for 4 hours. Thereafter, the strains were diluted with MHB2 liquid medium containing 0.2% bovine serum albumin and 0.01% acetic acid so that each bacterial number was 2×10^5 colony-forming units (CFU) per 1 mL, and dispensed into 96-well microtiter plates at 100 μL each. A peptoid stock which is 40-fold more concentrated than a concentration to be tested was added to each well at 2.5 μL or lower so that the peptoid stock was 2-fold serially diluted using sterile water. Thereafter, the plates were incubated at a temperature of 37° C. for 18 hours.
(§3) Thereafter, absorbance was measured at a wavelength of 600 nm using a microplate reader (Bio-Rad). The lowest peptoid concentration that completely suppresses growth of microorganisms was measured by a minimum inhibitory concentration (MIC) and a minimum bactericidal concentration (MBC), and the measurement results are shown in Table 5 below. Each of the MIC values was calculated as an average value of numerical values obtained through three independent experiments.

[2] = tested on: E. coli strain ATCC25922; assay type: cell-based; conditions: for MBC E. coli: ATCC25922; for MIC E. coli: ATCC25922, 18 h
Experimental: as §1, §2, §3

[3] = tested on: E. coli (63103 ESBL); assay: MIC in multidrug-resistant bacteria panel, modified microdilution; assay type: cell-based; conditions: overnight, 37° C.
Experimental: (§4) Minimum inhibitory concentrations of the prepared peptoids for multidrug-resistant bacteria were measured using a modified microdilution method in Difco Mueller Hinton medium, and tests were done on a panel of bacterial pathogens which have resistance and tolerance against common antibiotics.
(§5) Briefly, a peptoid concentrate, which is 10-fold more concentrated than a final concentration, was serially diluted with a medium containing 0.2% bovine serum albumin and 0.01% acetic acid. 10 μL of the 10-fold concentrated peptoid concentrate and 90 μL of Muller Hinton medium were added to each well of a 96-well polypropylene microtitre plate. Bacteria were added to the plate so that a final concentration thereof was 2×10^5 CFU/mL, and then incubated overnight at a temperature of 37° C. The minimum inhibitory concentration was defined as a concentration at which no bacterial growth is observed.

[4] = tested on: S. epidermidis (ET-024 MRSA); assay: as above; assay type: cell-based; conditions: overnight, 37° C.
Experimental: as §4, §5

[5] = tested on: P. aeruginosa (PA01); assay: as above; assay type: cell-based; conditions: overnight, 37° C.
Experimental: as §4, §5

[6] = tested on: E. coli; assay: Selectivity analysis, HD10 divided by MIC for E. coli; conditions: HD10 of Table 6 divided by MIC for E. coli ATCC25922
Experimental: In order to identify changes in selectivity depending on alteration of degree of folding in helical structure of peptoids, selectivity of each peptoid was calculated using the resultant values measured in the Experimental Examples 1 and 2. The selectivity was obtained by dividing the HD10 value by the minimum inhibitory concentration for E. coli (Table 8).

[7] = tested on: red blood cells; assay: Hemolytic activity on red blood cells; assay type: cell-based, mouse
Experimental: In order to identify, through red blood cell hemolytic activity in mice, whether the peptoids synthesized in Preparation Example 1 are cytotoxic, red blood cells isolated from 10 mL of mouse blood were washed three times with phosphate-buffered saline (PBS, mixed solution of 35 mM phosphate buffer/150 mM NaCl, pH 7.4), and then centrifuged at a centrifugal force of 1,000 ×g for 10 minutes. A 10% (v/v) red blood cell solution diluted with PBS was dispensed into a 96-well microtiter plate at 150 μL each, and then a peptide solution was added at 50 μL each. Thereafter, the 96-well microtiter plate was incubated at a temperature of 37° C. for 1 hour.
The incubated 96-well microtiter plate was centrifuged at a centrifugal force of 1,000×g for 5 minutes. Thereafter, supernatant was taken at 100 μL each and transferred to a new 96-well microtiter plate. Then, absorbance at a wavelength of 540 nm was measured (Table 6).
In this case, a value obtained in a case of being treated with 0.1% (v/v) Triton X-100 was set as 100% hemolysis, and hemolytic activity (degree of cell destruction) of the peptoids was calculated using the following Equation 1. In the Equation 1, A is absorbance of the peptoid solution at a wavelength of 540 nm, B is absorbance of 0.1% Triton X-100 at a wavelength of 540 nm, and C is absorbance of the PBS solution at a wavelength of 540 nm. In this case, Peptoid NO. […] Degree of cell destruction (% hemolysis)=(A−C)/(B−C)[…] [Equation 1]
In Table 6, HD10 means a peptoid concentration which causes 10% hemolysis of red blood cells, and HD50 means a peptoid concentration which causes 50% hemolysis of red blood cells. In addition, Hmax is a hemolysis rate (%) at 200 μM which is the highest peptoid concentration used in the experiment.
Hemolytic activity of Peptoid NOS. 1, 18 to 23, and the peptide Pexiganan was measured in the same manner as in Experimental Example 2.

[8] = tested on: S. aureus (ATCC25923); assay: MIC in multidrug-resistant bacteria panel, modified microdilution; assay type: cell-based; conditions: overnight, 37° C.
Experimental: as §4, §5

[9] = tested on: B. subtilis; assay type: cell-based; conditions: 18 h
Experimental: (§6) In order to measure antimicrobial activity of the peptoids, Gram-positive B. subtilis or Gram-negative E. coli strain DH5α was treated with Peptoid NOS. 1, 18 to 23, and the peptide Pexiganan, and minimum inhibitory concentrations were measured. Peptoid NOS. 1 and 2, and the peptide Pexiganan are already known antimicrobial peptoids and peptides, and were used for the purpose of making a comparison with novel peptoids in terms of antimicrobial activity.
(§7) Specifically, B. subtilis or E. coli DHS a was inoculated into LB liquid medium, and cultured at a temperature of 37° C. for 18 hours. Thereafter, the bacteria were diluted with LB medium so that each bacterial number was 2×10^5 colony-forming units (CFU) per 1 mL, and dispensed into 96-well microtiter plates at 100 μL each. The peptoid, which is 2-fold serially diluted using sterile water, was added to each well at 100 μL each. The plates were incubated at a temperature of 37° C. for 18 hours.
as §3, with “(MIC),” for “(MIC) and a minimum bactericidal concentration (MBC),”, “12” for “5”, “minimum inhibitory concentration” for “MIC”

[10] = tested on: E. coli strain DH5α; assay: Antimicrobial activity of peptoids with altered cationic residues, MIC; assay type: cell-based; conditions: LB medium, 18 h
Experimental: as §6, §7
as §3, with “(MIC),” for “(MIC) and a minimum bactericidal concentration (MBC),”, “12” for “5”, “minimum inhibitory concentration” for “MIC”

[11] = in vitro; assay type: cell-based
Experimental: In order to determine whether the peptoids were cytotoxic against human cell lines, […] cell line (Korean Cell Line Bank) which is a human lung cell line was cultured in a DMEM (Dulbecco's modified Eagle's medium) culture solution containing 10% (v/v) fetal bovine serum (FBS) at 5% CO2 and a temperature of 37° C. 100 μL of DMEM medium was dispensed into each well of a 96-well microtiter plate so that the number of cells was 1.3×10^4, and then incubated overnight at a temperature of 37° C. in a 5% CO2 incubator. In this case, a DMEM medium was used as a negative control. Thereafter, the peptoid which is 2-fold serially diluted using sterile water was added to each well, and then incubated for 24 hours.
After incubation, 20 μL of an MTS solution [3-(4,5-dimethylthiazol-2-yl)-5-(3-carboxymethoxyphenyl)-2-(4-sulfophenyl)-2H-tetrazolium, inner salt; MTS] was added thereto and incubated at a temperature of 37° C. for 4 hours. Thereafter, % survival was calculated by measuring absorbance at a wavelength of 490 nm using an ELISA reader. The % survival was calculated as a percentage obtained by dividing the absorbance value for a well-treated with the peptoid by the absorbance value for a well containing control cells which had not been treated with the peptoid.

MIC S. aureus [1] | MIC E. coli [2] | Selectivity [HD10/MIC (E. coli)] [6] | SMILES | MBC S. aureus [1] | MBC E. coli [2] | minimum inhibitory concentration E. coli (63103 ESBL) [3] | minimum inhibitory concentration S. epidermidis (ET-024 MRSA) [4] | minimum inhibitory concentration P. aeruginosa (PA01) [5] | HD50 [7] | minimum inhibitory concentration S. aureus (ATCC25923) [8] | HD10 [7] | MIC B. subtilis [9] | MIC E. coli [10] | CC50 at 24 h ([11]; human) | CC50 at 24 h ([11]; concentration indicating 50% survival, 24 h, MTS, read-out: LC50)
3.1 µM (≈ 5.29 µg/mL) | 25 µM (≈ 42.7 µg/mL) | >8.0 | NCCCCNCC(=O)N(CC(=O)N(CC(=O)N(CCCCN)CC(=O)N(CC(=O)N(CC(=O)N(CCCCN)CC(=O)N(CC(=O)N(CC(=O)N(CCCCN)CC(=O)N(CC(=O)N(CC(N)=O)Cc1ccccc1)Cc1ccccc1)Cc1ccccc1)Cc1ccccc1)Cc1ccccc1)Cc1ccccc1)Cc1ccccc1)Cc1ccccc1 [compound 2] (H-[Nlys][Nphe][Nphe][Nlys][Nphe][Nphe][Nlys][Nphe][Nphe][Nlys][Nphe][Nphe]-NH2) | 6.3 µM (≈ 10.8 µg/mL) | >25 µM | 12.5 | <0.8 to 0.8 | 6.3 | >200/>200 | – | – | – | – | – | –
3.1 µM (≈ 5.47 µg/mL) | 12.5 µM (≈ 22 µg/mL) | 4.9 | C[C@@H](c1ccccc1)N(CC(N)=O)C(=O)CN(C(=O)CN(CCCCN)C(=O)CN(Cc1ccccc1)C(=O)CN(Cc1ccccc1)C(=O)CN(CCCCN)C(=O)CN(Cc1ccccc1)C(=O)CN(Cc1ccccc1)C(=O)CN(CCCCN)C(=O)CN(C(=O)CN(C(=O)CNCCCCN)[C@@H](C)c1ccccc1)[C@@H](C)c1ccccc1)[C@@H](C)c1ccccc1 [compound 11] | 6.3 µM (≈ 11.1 µg/mL) | 25 µM (≈ 44.1 µg/mL) | 6.3 | <0.8 to 0.8 | 6.3 | > 200 | 3.1 | 61.6 | – | – | – | –
3.1 µM (≈ 5.38 µg/mL) | 25 µM (≈ 43.4 µg/mL) | 4.8 | C[C@@H](c1ccccc1)N(CC(=O)N(CCCCN)CC(=O)N(CC(=O)N(CC(=O)N(CCCCN)CC(=O)N(CC(=O)N(CC(=O)N(CCCCN)CC(=O)N(CC(=O)N(CC(N)=O)Cc1ccccc1)Cc1ccccc1)Cc1ccccc1)Cc1ccccc1)Cc1ccccc1)Cc1ccccc1)C(=O)CN(C(=O)CNCCCCN)[C@@H](C)c1ccccc1 [compound 17] (H-[Nlys][Nspe][Nspe][Nlys][Nphe][Nphe][Nlys][Nphe][Nphe][Nlys][Nphe][Nphe]-NH2) | 3.1 µM (≈ 5.38 µg/mL) | 25 µM (≈ 43.4 µg/mL) | – | <0.8 to 0.8 | 6.3 | > 200 | – | – | – | – | – | –
– | – | – | C[C@@H](c1ccccc1)N(CC(N)=O)C(=O)CN(C(=O)CN(CCCCN)C(=O)CN(C(=O)CN(C(=O)CN(CCCCN)C(=O)CN(C(=O)CN(C(=O)CNCCCCN)[C@@H](C)c1ccccc1)[C@@H](C)c1ccccc1)[C@@H](C)c1ccccc1)[C@@H](C)c1ccccc1)[C@@H](C)c1ccccc1 [compound 18] (H-[Nlys][Nspe][Nspe][Nlys][Nspe][Nspe][Nlys][Nspe][Nspe]-NH2) | – | – | – | – | – | – | – | – | 1.6 µM (≈ 2.19 µg/mL) | 3.1 µM (≈ 4.24 µg/mL) | 40 µM | –
– | – | – | C[C@@H](c1ccc(F)cc1)N(CC(N)=O)C(=O)CN(C(=O)CN(CCCCN)C(=O)CN(C(=O)CN(C(=O)CN(CCCCN)C(=O)CN(C(=O)CN(C(=O)CN(CCCCN)C(=O)CN(C(=O)CN(C(=O)CNCCCCN)[C@@H](C)c1ccc(F)cc1)[C@@H](C)c1ccc(F)cc1)[C@@H](C)c1ccc(F)cc1)[C@@H](C)c1ccc(F)cc1)[C@@H](C)c1ccc(F)cc1)[C@@H](C)c1ccc(F)cc1)[C@@H](C)c1ccc(F)cc1 [compound 21] | – | – | – | – | – | <6.25/<6.25 | – | <6.25/<6.25 | 0.4 µM (≈ 0.785 µg/mL) | – | 9.5 µM | –
– | – | – | C[C@@H](c1ccccc1)N(CC(=O)N(CCCCN)CC(=O)N(CC(=O)N(CC(=O)N(CCCCN)CC(=O)N(CC(=O)N(CC(=O)N(CCCCN)CC(=O)N(CC(=O)N(CC(=O)N(CCCCN)CC(N)=O)[C@@H](C)c1ccccc1)[C@@H](C)c1ccccc1)[C@@H](C)c1ccccc1)[C@@H](C)c1ccccc1)[C@@H](C)c1ccccc1)[C@@H](C)c1ccccc1)C(=O)CN(C(=O)CNCCCCN)[C@@H](C)c1ccccc1 [compound 22] (H-[Nlys][Nspe][Nspe][Nlys][Nspe][Nspe][Nlys][Nspe][Nspe][Nlys][Nspe][Nspe][Nlys]-NH2) | – | – | – | – | – | – | – | 19.5 | 0.4 µM (≈ 0.779 µg/mL) | – | – | 10 µM
– | – | – | C[C@@H](c1ccccc1)N(CC(=O)N(CCCCN)CC(=O)N(CC(=O)N(CC(=O)N(CCCCN)CC(=O)N(CC(=O)N(CC(=O)N(CCCCN)CC(N)=O)[C@@H](C)c1ccccc1)[C@@H](C)c1ccccc1)[C@@H](C)c1ccccc1)[C@@H](C)c1ccccc1)C(=O)CN(C(=O)CNCCCCN)[C@@H](C)c1ccccc1 [compound 23] (H-[Nlys][Nspe][Nspe][Nlys][Nspe][Nspe][Nlys][Nspe][Nspe][Nlys]-NH2) | – | – | – | – | – | – | – | – | 0.8 µM (≈ 1.2 µg/mL) | 1.6 µM (≈ 2.4 µg/mL) | 80.5 µM | –
